Experimental findings from US9365574B2, “Soluble guanylate cyclase activators” (Merck Sharp & Dohme Corp., priority 2010, dated 2016) are described below.

The subject of the experiment is Spontaneously hypertensive rats (SHR). The experiment in a line: Acute Efficacy in Spontaneously Hypertensive Rats (SHR), telemetry blood pressure. The experiment is classed as in vivo, rat. An outline of the steps:
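Male SHR with aortic telemetry catheters, 14-day recovery, conscious and freely moving; single oral gavage in 10% transcutol/20% Cremophor/70% water. BP sampled 30 s every 10 min, hourly averages minus prior-day vehicle baseline; value is maximum peak SBP decrease at stated mg/kg PO dose.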

Turning to `CC1(C(=O)NC2CC2)C(=O)Nc2nc(-c3nn(CCC(F)(F)C(F)(F)F)c4nc(C5CC5)ccc34)nc(N)c21` (centres unmarked) [Example 223, 4-amino-N-cyclopropyl-2-[6-cyclopropyl-1-(3,3,4,4,4-pentafluorobutyl)-1H-pyrazolo[3,4-b]pyridin-3-yl]-5-methyl-6-oxo-6,7-dihydro-5H-pyrrolo[2,3-d]pyrimidine-5-carboxamide], the “Maximum peak decrease of systolic blood pressure (SBP) in SHR, Category” value (“Maximum peak decrease” for short) (single oral dose 0.3 mpk P.O.) is “B (Category B=SBP in SHRs 25-40 mmHg)”.

As to `CNc1nc(-c2nn(CCC(F)(F)C(F)(F)F)c3ncccc23)nc2c1C(C)(c1nnc(C)o1)C(=O)N2` (centres unmarked) [Example 189, 5-Methyl-4-(Methylamino)-5-(5-Methyl-1,3,4-Oxadiazol-2-yl)-2-[1-(3,3,4,4,4-Pentafluorobutyl)-1H-Pyrazolo [3,4-B]Pyridin-3-yl]-5,7-Dihydro-6H-Pyrrolo[2,3-D]Pyrimidin-6-One], the “Maximum peak decrease” value (single oral dose 0.3 mpk P.O.) is listed as “C (Category C=SBP in SHRs>40 mmHg)”.

With `CC1(C(=O)NC2CC2)C(=O)Nc2nc(-c3nn(CCC(F)(F)F)c4nc(Cl)ccc34)nc(N)c21` (centres unmarked) [Example 183, 4-Amino-2-[6-Chloro-1-(3,3,3-Trifluoropropyl)-1H-Pyrazolo[3,4-B]Pyridin-3-yl]-N-Cyclopropyl-5-Methyl-6-Oxo-6,7-Dihydro-5H-Pyrrolo[2,3-D]Pyrimidine-5-Carboxamide], where the note is “single oral dose 0.3 mpk P.O.”, the “Maximum peak decrease” value was “C (Category C=SBP in SHRs>40 mmHg)”.

Consider `CCOC(=O)NC1(C)C(=O)Nc2nc(-c3nn(CCC(F)(F)C(F)(F)F)c4cc(Cl)ccc34)nc(N)c21` (centres unmarked) [Example 166, Ethyl (4-Amino-2-(6-Chloro-1-(3,3,4,4,4-Pentafluorobutyl)-1H-Indazol-3-yl)-5-Methyl-6-Oxo-6,7-Dihydro-5H-Pyrrolo[2,3-D]Pyrimidin-5-yl)Carbamate], for which the “Maximum peak decrease” value (single oral dose 0.3 mpk P.O.) is reported as “A (Category A=SBP in SHRs<25 mmHg)”.

With `CCc1nnc(C2(C)C(=O)Nc3nc(-c4nn(CCC(F)(F)C(F)(F)F)c5ncccc45)nc(N)c32)o1` (centres unmarked) [Example 211, 4-amino-5-(5-ethyl-1,3,4-oxadiazol-2-yl)-5-methyl-2-[1-(3,3,4,4,4-pentafluorobutyl)-1H-pyrazolo[3,4-b]pyridin-3-yl]-5,7-dihydro-6H-pyrrolo[2,3-d]pyrimidin-6-one], under “single oral dose 0.3 mpk P.O.”, the “Maximum peak decrease” value is “C (Category C=SBP in SHRs>40 mmHg)”.

Take `CC1(C(=O)Nc2ccccn2)C(=O)Nc2nc(-c3nn(CCOC(F)(F)F)c4ncccc34)nc(N)c21` (centres unmarked) [Example 209, 4-amino-5-methyl-6-oxo-N-pyridin-2-yl-2-{1-[2-(trifluoromethoxy)ethyl]-1H-pyrazolo[3,4-b]pyridin-3-yl}-6,7-dihydro-5H-pyrrolo[2,3-d]pyrimidine-5-carboxamide]: the “Maximum peak decrease” value (single oral dose 1 mpk P.O.) was “B (Category B=SBP in SHRs 25-40 mmHg)”.

Take `CC1(C(=O)NC2CC2)C(=O)Nc2nc(-c3nn(CCC(F)(F)C(F)(F)F)c4cc(F)ccc34)nc(N)c21` (centres unmarked) [Example 195, 4-amino-N-cyclopropyl-2-[6-fluoro-1-(3,3,4,4,4-pentafluorobutyl)-1H-indazol-3-yl]-5-methyl-6-oxo-6,7-dihydro-5H-pyrrolo[2,3-d]pyrimidine-5-carboxamide]: for the setting “single oral dose 0.3 mpk P.O.”, the “Maximum peak decrease” value is recorded as “C (Category C=SBP in SHRs>40 mmHg)”.

Consider `CC1(C(N)=O)C(=O)Nc2nc(-c3nn(CCCC(F)(F)F)c4ncccc34)nc(N)c21` (centres unmarked) [Example 228, 4-amino-5-methyl-6-oxo-2-[1-(4,4,4-trifluorobutyl)-1H-pyrazolo[3,4-b]pyridin-3-yl]-6,7-dihydro-5H-pyrrolo[2,3-d]pyrimidine-5-carboxamide], for which the “Maximum peak decrease” value (single oral dose 0.3 mpk P.O.) is recorded as “A (Category A=SBP in SHRs<25 mmHg)”.

As to `Nc1nc(-c2nn(CCC(F)(F)C(F)(F)F)c3ncccc23)nc2c1C(C(=O)NC1CC1)(C1CC1)C(=O)N2` (centres unmarked) [Example 242, 4-amino-N,5-dicyclopropyl-6-oxo-2-[1-(3,3,4,4,4-pentafluorobutyl)-1H-pyrazolo(3,4-b]pyridin-3-yl]-6,7-dihydro-5H-pyrrolo[2,3-d]pyrimidine-5-carboxamide], the “Maximum peak decrease” value (single oral dose 0.3 mpk P.O.) is recorded as “B (Category B=SBP in SHRs 25-40 mmHg)”.

As to `CC1(C(N)=O)C(=O)Nc2nc(-c3nn(CCC(F)(F)C(F)(F)F)c4cc(Cl)ccc34)nc(N)c21` (single isomer, unassigned) [Example 159, 4-Amino-2-[6-Chloro-1-(3,3,4,4,4-Pentafluorobutyl)-1H-Indazol-3-yl]-5-Methyl-6-Oxo-6,7-Dihydro-5H-Pyrrolo[2,3-D]Pyrimidine-5-Carboxamide], for the setting “dose 0.3 mpk”, the “Maximum SBP reduction” value is on record as 38 ± 6 mmHg. Besides, the “Maximum peak decrease” value (single oral dose 0.3 mpk P.O.) is recorded as “B (Category B=SBP in SHRs 25-40 mmHg)”.

For the compound `Cn1ccc(NC(=O)C2(C)C(=O)Nc3nc(-c4nn(CCC(F)(F)C(F)(F)F)c5ncccc45)nc(N)c32)n1` (centres unmarked) [Example 218, 4-amino-5-methyl-N-(1-methyl-1H-pyrazol-3-yl)-6-oxo-2-[1-(3,3,4,4,4-pentafluorobutyl)-1H-pyrazolo[3,4-b]pyridin-3-yl]-6,7-dihydro-5H-pyrrolo[2,3-d]pyrimidine-5-carboxamide], under “single oral dose 1 mpk P.O.”, the “Maximum peak decrease” value is on record as “C (Category C=SBP in SHRs>40 mmHg)”.

`CC1(C(=O)Nc2cccnc2)C(=O)Nc2nc(-c3nc(CCC(F)(F)C(F)(F)F)n4cc(F)ccc34)nc(N)c21` (centres unmarked) [Example 253, 4-amino-2-[6-fluoro-3-(3,3,4,4,4-pentafluorobutyl)imidazo[1,5-a]pyridin-1-yl]-5-methyl-6-oxo-H-pyridin-3-yl-6,7-dihydro-5H-pyrrolo[2,3-d]pyrimidine-5-carboxamide]: the “Maximum peak decrease” value (single oral dose 0.3 mpk P.O.) is reported as “A (Category A=SBP in SHRs<25 mmHg)”.

With `N#CC1(C2CC2)C(=O)Nc2nc(-c3nn(CCC(F)(F)C(F)(F)F)c4ncccc34)nc(N)c21` (centres unmarked) [Example 163, 4-Amino-5-Cyclopropyl-6-Oxo-2-[1-(3,3,4,4,4-Pentafluorobutyl)-1H-Pyrazolo[3,4-B]Pyridin-3-yl]-6,7-Dihydro-5H-Pyrrolo[2,3-D]Pyrimidine-5-Carbonitrile], the “Maximum peak decrease” value (single oral dose 0.3 mpk P.O.) was “C (Category C=SBP in SHRs>40 mmHg)”.

Consider `CNc1nc(-c2nn(CCC(F)(F)C(F)(F)F)c3ncccc23)nc2c1C(C)(c1ccccc1)C(=O)N2` (centres unmarked) [Example 186, 5-Methyl-4-(Methylamino)-2-[1-(3,3,4,4,4-Pentafluorobutyl)-1H-Pyrazolo[3,4-B]Pyridin-3-yl]-5-Phenyl-5,7-Dihydro-6H-Pyrrolo[2,3-D]Pyrimidin-6-One], for which the “Maximum peak decrease” value (single oral dose 0.3 mpk P.O.) is recorded as “B (Category B=SBP in SHRs 25-40 mmHg)”.

For the compound `CC1(C(=O)NC2COC2)C(=O)Nc2nc(-c3nn(CCC(F)(F)C(F)(F)F)c4nc(Cl)ccc34)nc(N)c21` (centres unmarked) [Example 230, 4-amino-2-[6-chloro-1-(3,3,4,4,4-pentafluorobutyl)-1H-pyrazolo[3,4-b]pyridin-3-yl]-5-methyl-N-oxetan-3-yl-6-oxo-6,7-dihydro-5H-pyrrolo[2,3-d]pyrimidine-5-carboxamide], the “Maximum peak decrease” value (single oral dose 0.1 mpk P.O.) is given as “A (Category A=SBP in SHRs<25 mmHg)”.

For the compound `CC1(C(=O)NC2CC2)C(=O)Nc2nc(-c3nn(CCOC(F)(F)F)c4ncccc34)nc(N)c21` (centres unmarked) [Example 200, 4-amino-N-cyclopropyl-5-methyl-6-oxo-2-{1-[2-(trifluoromethoxy)ethyl]-1H-pyrazolo[3,4-6]pyridin-3-yl}-6,7-dihydro-5H-pyrrolo[2,3-d]pyrimidine-5-carboxamide], the “Maximum peak decrease” value (single oral dose 0.3 mpk P.O.) is “C (Category C=SBP in SHRs>40 mmHg)”.
